Experimental data reported in PubChem BioAssay (NCI).
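Tested at 5 concentrations; 48 h exposure; 96-well plates; endpoints linearly interpolated, else capped at highest concentration. TGI: concentration producing complete growth inhibition.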

Assays:
Test in all cases: growth of human tumour cells (NCI), 48 h
M19-MEL melanoma = tested on: M19-MEL melanoma
LXFL 529 NSCLC = tested on: LXFL 529 NSCLC
DLD-1 colon = tested on: DLD-1 colon
DMS 273 small cell lung = tested on: DMS 273 small cell lung
KM20L2 colon = tested on: KM20L2 colon
HOP-18 NSCLC = tested on: HOP-18 NSCLC
SNB-78 CNS = tested on: SNB-78 CNS
RXF-631 renal = tested on: RXF-631 renal
XF 498 CNS = tested on: XF 498 CNS

C/C(=N\NS(=O)(=O)c1ccc(C)cc1)c1cc2ccccc2n1C
TGI (M19-MEL melanoma): > 100 µM
TGI (LXFL 529 NSCLC): > 100 µM
TGI (DLD-1 colon): > 100 µM
TGI (DMS 273 small cell lung): > 100 µM
TGI (KM20L2 colon): > 100 µM

COC(=O)C(CC(C)=O)CS(=O)(=O)CC(=O)C(=O)Nc1cccc([N+](=O)[O-])c1 (stereo not drawn)
TGI (M19-MEL melanoma): > 100 µM
TGI (HOP-18 NSCLC): > 100 µM
TGI (LXFL 529 NSCLC): > 100 µM
TGI (SNB-78 CNS): > 100 µM
TGI (DLD-1 colon): > 100 µM
TGI (RXF-631 renal): > 100 µM
TGI (DMS 273 small cell lung): > 100 µM
TGI (XF 498 CNS): > 100 µM
TGI (KM20L2 colon): > 100 µM

Cc1cc2oc(-c3ccccc3)c(C)c(=O)c2c2c1OC(C)(C)S2
TGI (M19-MEL melanoma): > 100 µM
TGI (HOP-18 NSCLC): > 100 µM
TGI (LXFL 529 NSCLC): > 100 µM
TGI (DLD-1 colon): > 100 µM
TGI (RXF-631 renal): > 100 µM
TGI (DMS 273 small cell lung): > 100 µM
TGI (XF 498 CNS): > 100 µM
TGI (KM20L2 colon): > 100 µM

C[C@H](NC(=O)n1c2ccccc2c2ccccc21)C(=O)O
TGI (M19-MEL melanoma): > 100 µM
TGI (HOP-18 NSCLC): > 100 µM
TGI (LXFL 529 NSCLC): > 100 µM
TGI (DLD-1 colon): > 100 µM
TGI (RXF-631 renal): > 100 µM
TGI (DMS 273 small cell lung): > 100 µM
TGI (KM20L2 colon): > 100 µM

COC(=O)C1=CC2CC1C(S(=O)(=O)c1ccccc1)C2S(=O)(=O)c1ccccc1 (stereo not drawn)
TGI (M19-MEL melanoma): 42.2 µM
TGI (HOP-18 NSCLC): 30.5 µM
TGI (LXFL 529 NSCLC): 18.6 µM
TGI (DLD-1 colon): 29.8 µM
TGI (RXF-631 renal): 26.9 µM
TGI (DMS 273 small cell lung): 23.4 µM
TGI (KM20L2 colon): 33.2 µM

Cc1ccc2c(c1)C1(OC(=O)c3ccccc31)c1ccc(F)cc1O2 (stereo not drawn)
TGI (M19-MEL melanoma): > 100 µM
TGI (HOP-18 NSCLC): > 100 µM
TGI (LXFL 529 NSCLC): > 100 µM
TGI (DLD-1 colon): > 100 µM
TGI (RXF-631 renal): > 100 µM
TGI (XF 498 CNS): > 100 µM
TGI (KM20L2 colon): > 100 µM

Cc1ccc(S(=O)(=O)N2c3ccccc3[C@H]3CCC=C[C@H]32)cc1
TGI (M19-MEL melanoma): 37.8 µM
TGI (HOP-18 NSCLC): > 100 µM
TGI (LXFL 529 NSCLC): > 93.9 µM
TGI (SNB-78 CNS): > 85.7 µM
TGI (DLD-1 colon): > 100 µM
TGI (RXF-631 renal): > 100 µM
TGI (DMS 273 small cell lung): 18.9 µM
TGI (XF 498 CNS): 73.7 µM
TGI (KM20L2 colon): 10.3 µM

c1cnc2c(c1)-n1cccc1C1(CCSC1)NN2 (stereo not drawn)
TGI (M19-MEL melanoma): > 100 µM
TGI (HOP-18 NSCLC): > 100 µM
TGI (SNB-78 CNS): > 100 µM
TGI (DLD-1 colon): > 100 µM
TGI (DMS 273 small cell lung): > 100 µM
TGI (XF 498 CNS): > 100 µM

Cc1ccc(NCC(=O)N2CC(=O)Nc3ccccc32)cc1
TGI (M19-MEL melanoma): > 100 µM
TGI (HOP-18 NSCLC): > 100 µM
TGI (LXFL 529 NSCLC): > 100 µM
TGI (SNB-78 CNS): > 100 µM
TGI (DLD-1 colon): > 100 µM
TGI (DMS 273 small cell lung): > 100 µM
TGI (XF 498 CNS): > 100 µM
TGI (KM20L2 colon): > 100 µM

CC1(c2cccc(N)c2)C2C(=O)NC(=O)C1C(=O)NC2=O (stereo not drawn)
TGI (M19-MEL melanoma): > 100 µM
TGI (LXFL 529 NSCLC): > 100 µM
TGI (SNB-78 CNS): > 100 µM
TGI (DLD-1 colon): > 100 µM
TGI (RXF-631 renal): > 100 µM
TGI (DMS 273 small cell lung): 73.3 µM
TGI (XF 498 CNS): 64.4 µM
TGI (KM20L2 colon): > 100 µM

COc1ccc(N2C(=O)c3c(c4[nH]c5ccc(OC)cc5c4c4ccc(C(C)(C)C)cc34)C2=O)cc1
TGI (M19-MEL melanoma): > 100 µM
TGI (HOP-18 NSCLC): > 100 µM
TGI (LXFL 529 NSCLC): > 100 µM
TGI (SNB-78 CNS): > 100 µM
TGI (DLD-1 colon): > 100 µM
TGI (DMS 273 small cell lung): > 100 µM
TGI (XF 498 CNS): > 100 µM

CCOC(=O)CSc1nnc(CSc2nc(-c3ccccc3)c(-c3ccccc3)[nH]2)n1-c1ccccc1
TGI (M19-MEL melanoma): > 100 µM
TGI (LXFL 529 NSCLC): 42.4 µM
TGI (SNB-78 CNS): 68.5 µM
TGI (DLD-1 colon): > 100 µM
TGI (DMS 273 small cell lung): > 100 µM
TGI (XF 498 CNS): 46.3 µM
TGI (KM20L2 colon): 59.2 µM

CCC12CCCNC1c1c(n(C)c3ccccc13)C(C(=O)OC)C2 (stereo not drawn)
TGI (M19-MEL melanoma): 194 µM
TGI (LXFL 529 NSCLC): > 275 µM
TGI (DLD-1 colon): > 275 µM
TGI (DMS 273 small cell lung): 246 µM
TGI (XF 498 CNS): 123 µM
TGI (KM20L2 colon): 231 µM

Cc1ccc2c(c1)C1C(CO2)C(c2ccccc2)=NN1c1ccccc1 (stereo not drawn)
TGI (M19-MEL melanoma): > 100 µM
TGI (HOP-18 NSCLC): > 100 µM
TGI (LXFL 529 NSCLC): > 100 µM
TGI (SNB-78 CNS): > 100 µM
TGI (DLD-1 colon): > 100 µM
TGI (DMS 273 small cell lung): > 100 µM
TGI (KM20L2 colon): > 100 µM

Cc1cc(C)n2c(-c3ccccc3)c(C)cc2n1
TGI (M19-MEL melanoma): > 100 µM
TGI (HOP-18 NSCLC): > 100 µM
TGI (SNB-78 CNS): > 100 µM
TGI (DLD-1 colon): > 100 µM
TGI (RXF-631 renal): > 100 µM
TGI (DMS 273 small cell lung): > 100 µM
TGI (KM20L2 colon): > 100 µM
